Data set [1] in a line: Previous experiments on wetting of Compound A-7 solids load by polysorbate 20. As to conditions: 25.6 wt % solids load of Compound A-7 bulk recrystallized drug substance. It counts as physicochemical.
A short description of data set [2]: Solubility of Compound A-7 in vehicles containing varying amounts of sorbitan monolaurate. It counts as physicochemical. The settings on record: 10 mM phosphate buffer, 0.2% polysorbate 20, saline, 0%-0.75% sorbitan laurate, 25° C., HPLC (FIG. 9). As to the method:
• a. Injection vehicles comprised of ca. 10 mM phosphate buffer, 0.2% polysorbate 20, saline and various amount of sorbitan laurate (0%-0.75%) were prepared. The injection vehicles were stirred for 4 hours before preparing suspension preparation. • b. Approximately 1.25±0.05 g of Compound A-7 were added to 15 mL injection vehicles in a 20-mL glass scintillation vial with a ⅞″× 5/16″ stirring bar. The suspension was vigorously stirred on Chemglass CG-1990-T-50 hotplate at 25° C. which was controlled using a thermal sensor. • c. At each time point, a total of 3 mL of -mixed suspension were transferred into two 1.5-mL centrifuge tubes using a plastic pipette. The tubes were centrifuged at 14,000 rpm for 4 minutes. The supernatant of both tubes were combined and centrifuged again at 14,000 rpm for 4 minutes. The HPLC sample was then prepared with final (2nd) centrifuged supernatant by diluting 0.4 mL supernatant with 0.6 mL THF. • d. Concentration of dissolved Compound A-7 was determined using HPLC.

In data set [3] the test system is rats. The data set can be described thus: Subcutaneous injection site reaction model. As to conditions: single SC injection, Day 10, formulations comprising sorbitan laurate compared to formulations with no sorbitan laurate (FIGS. 8A, 8B).
The conditions of data set [4]: cited from earlier work.
A short description of data set [5]: Wettability characterization: free energy of immersion and spreading coefficient of Compound A-7 in injection vehicles. Type of data set: physicochemical. The settings on record: recrystallized Compound A-7 against the named injection vehicle formulation; predicted from vehicle surface tension and solid surface energy. From the text:
A surface energy measurement methodology was developed that would allow for facile screening of formulation candidates with minimal use of drug substance. These experiments utilize the surface tension of the injection vehicle and surface energy of the solid to predict the immersional free energy and spreading coefficient between the liquid and the solid.
A force-balance tensiometer (Attension Sigma® 701) with a platinum Wilhelmy plate was used to measure the surface energy (tension) of the vehicle of interest. This was done using a 30 mL sample of the vehicle of interest and taking 8 individual surface tension measurements. The first 3 measurements were discarded as being non-representative of equilibrium conditions, and the remaining measurements were averaged to give the surface tension value. […] To then obtain the polar and non-polar (dispersive) components of the surface tension, a polytetrafluoroethylene (PTFE) contact angle standard (Rame-Hart) was affixed to the tensiometer and the dynamic contact angle was measured. […]
With the total surface tension of the liquid, and the contact angle of the liquid on a non-polar surface with known surface energy attributes, the polar and dispersive components of the surface tension were calculated. […]

This is an account of results in patent publication US10226458B2, “Pharmaceutical compositions comprising sorbitan esters” (Alkermes Pharma Ireland Limited, priority 2011, dated 2019).

Consider `CCCCCCCCCCCC(=O)OCN1C(=O)CCc2ccc(OCCCCN3CCN(c4cccc(Cl)c4Cl)CC3)cc21` [Compound A-7, (7-(4-(4-(2,3-dichlorophenyl)piperazin-1-yl)butoxy)-2-oxo-3,4-dihydroquinolin-1(2H)-yl)methyl dodecanoate], for which the “polysorbate 20 required to adequately wet the drug substance” value in data set [1] is reported as “at least 0.1%”. In addition, in data set [2], the “solubility (concentration of dissolved Compound A-7)” value was “decreases solubility up to 0.5 wt % SML with solubility increasing again above 0.5 wt. %”.
For the molecule `O=C1CCc2ccc(OCCCCN3CCN(c4cccc(Cl)c4Cl)CC3)cc2N1` [aripiprazole (free base), 7-{4-[4-(2,3-dichlorophenyl)-1-piperazinyl]butoxy}-3,4-dihydro-2(1H)-quinolinone], the “injection site reaction (weight of excised ISR)” value in data set [3] is reported as “significant reduction in injection site reaction”. The tissue irritation result in data set [4] (following IM and SC injection) is recorded as “unacceptable (moderate to severe) tissue irritation”. In addition, in data set [4] (long-acting injections), the pharmacokinetic profile result is given as “prolonged pharmacokinetic profile”.
`Cc1cc2c(s1)Nc1ccccc1N=C2N1CCN(C)CC1.O.O=C(O)c1cc2ccccc2c(Cc2c(O)c(C(=O)O)cc3ccccc23)c1O` [olanzapine pamoate]: the “injection site reaction (weight of excised ISR)” value in data set [3] is listed as “significant reduction in injection site reaction”.
Water: in data set [5], the “FREE ENERGY OF IMMERSION” value was 10 mN/m and the “SPREADING COEFFICIENT” value was −83.3 mN/m.
